In patent publication US9944602B2, “Piperidinone herbicides” (E. I. DU PONT DE NEMOURS AND COMPANY, priority 2014, dated 2018):

What was measured:
Format in all cases: in vivo
[1] = test system: foxtail, giant (giant foxtail, Setaria faberii); experiment: Test C postemergence foxtail, giant; conditions: Table C, scale 0 to 100
Text: (§1) Seeds of plant species selected from blackgrass (Alopecurus myosuroides), ryegrass, Italian (Italian ryegrass, Lolium multiflorum), wheat (winter wheat, Triticum aestivum), galium (catchweed bedstraw, Galium aparine), corn (Zea mays), crabgrass, large (large crabgrass, Digitaria sanguinalis), foxtail, giant (giant foxtail, Setaria faberii), johnsongrass (Sorghum halepense), lambsquarters (Chenopodium album), morningglory (Ipomoea coccinea), yellow (yellow nutsedge, Cyperus esculentus), pigweed (Amaranthus retroflexus), ragweed (common ragweed, Ambrosia elatior), soybean (Glycine max), barnyardgrass (Echinochloa crus-galli), oilseed rape (Brassica napus), waterhemp (common waterhemp, Amaranthus rudis), and velvetleaf (Abutilon theophrasti) were planted into a blend of loam soil and sand and treated preemergence with test chemicals formulated in a non-phytotoxic solvent mixture which included a surfactant. At the same time, plants selected from these crop and weed species and also chickweed (common chickweed, Stellaria media), kochia (Kochia scoparia), and oat, wild (wild oat, Avena fatua) were planted in pots containing Sunshine Redi-Earth® planting medium comprising spaghnum peat moss, vermiculite, starter nutrients and dolomitic limestone and treated with postemergence applications of test chemicals formulated in the same manner. Plants ranged in height from 2 to 18 cm (1- to 4-leaf stage) for postemergence treatments. Treated plants and controls were maintained in a greenhouse for 13 to 15 days, after which time all species were compared to controls and visually evaluated. Plant response ratings, summarized in Table C, are based on a scale of 0 to 100 where 0 is no effect and 100 is complete control. A dash (-) response means no test result.

[2] = test system: lambsquarters (Chenopodium album); experiment: Test C postemergence lambsquarters; conditions: Table C, scale 0 to 100
Text: as §1

[3] = test system: velvetleaf (Abutilon theophrasti); experiment: Test C postemergence velvetleaf; conditions: Table C, scale 0 to 100
Text: as §1

[4] = test system: yellow (yellow nutsedge, Cyperus esculentus); experiment: Test C postemergence yellow nutsedge; conditions: Table C, scale 0 to 100
Text: as §1

[5] = test system: crabgrass, large (large crabgrass, Digitaria sanguinalis); experiment: Test C postemergence crabgrass, large; conditions: Table C, scale 0 to 100
Text: as §1

corn (Zea mays) [6] = experiment: Test C postemergence corn; conditions: Table C, scale 0 to 100
Text: as §1

[7] = test system: pigweed (Amaranthus retroflexus); experiment: Test C preemergence pigweed; conditions: Table C, scale 0 to 100
Text: as §1

corn (Zea mays) [8] = experiment: Test C preemergence corn; conditions: Table C, scale 0 to 100
Text: as §1

[9] = test system: morningglory (Ipomoea coccinea); experiment: Test C preemergence morningglory; conditions: Table C, scale 0 to 100
Text: as §1

[10] = test system: foxtail, giant (giant foxtail, Setaria faberii); experiment: Test C preemergence foxtail, giant; conditions: Table C, scale 0 to 100
Text: as §1

[11] = test system: johnsongrass (Sorghum halepense); experiment: Test C preemergence johnsongrass; conditions: Table C, scale 0 to 100
Text: as §1

[12] = test system: barnyardgrass (Echinochloa crus-galli); experiment: Test C preemergence barnyardgrass; conditions: Table C, scale 0 to 100
Text: as §1

[13] = test system: velvetleaf (Abutilon theophrasti); experiment: Test C preemergence velvetleaf; conditions: Table C, scale 0 to 100
Text: as §1

[14] = test system: yellow (yellow nutsedge, Cyperus esculentus); experiment: Test C preemergence yellow nutsedge; conditions: Table C, scale 0 to 100
Text: as §1

[15] = test system: wheat (winter wheat, Triticum aestivum); experiment: Test C preemergence wheat; conditions: Table C, scale 0 to 100
Text: as §1

soybean (Glycine max) = experiment: Test C preemergence soybean; conditions: Table C, scale 0 to 100
Text: as §1

[16] = test system: velvetleaf (Abutilon theophrasti); experiment: Test A preemergence velvetleaf; conditions: 0 to 100 scale, 0 no effect, 100 complete control
Text: (§2) Seeds of plant species selected from barnyardgrass (Echinochloa crus-galli), kochia (Kochia scoparia), ragweed (common ragweed, Ambrosia elatior), ryegrass, Italian (Italian ryegrass, Lolium multiflorum), crabgrass, large (large crabgrass, Digitaria sanguinalis), foxtail, giant (giant foxtail, Setaria faberii), morningglory (Ipomoea spp.), pigweed (Amaranthus retroflexus), velvetleaf (Abutilon theophrasti), wheat (Triticum aestivum), and corn (Zea mays) were planted into a blend of loam soil and sand and treated preemergence with a directed soil spray using test chemicals formulated in a non-phytotoxic solvent mixture which included a surfactant.
(§3) At the same time, plants selected from these crop and weed species and also blackgrass (Alopecurus myosuroides), and galium (catchweed bedstraw, Galium aparine) were planted in pots containing the same blend of loam soil and sand and treated with postemergence applications of test chemicals formulated in the same manner. Plants ranged in height from 2 to 10 cm and were in the one- to two-leaf stage for the postemergence treatment. Treated plants and untreated controls were maintained in a greenhouse for approximately 10 d, after which time all treated plants were compared to untreated controls and visually evaluated for injury. Plant response ratings, summarized in Table A, are based on a 0 to 100 scale where 0 is no effect and 100 is complete control. A dash (-) response means no test result.

corn (Zea mays) [17] = experiment: Test A preemergence corn; conditions: 0 to 100 scale; for Corn plant response rating: 125 g ai/ha, 0 no effect, 100 complete control; for Plant response rating, Corn: 500 g ai/ha, 0 is no effect, 100 is complete control
Text: as §2, §3

SMILES: O=C1NCCC(c2cccc(C(F)(F)F)c2)C1C(=O)Nc1ccccc1Cl (racemic) [Compound 17]
- Plant response rating ([1]; 31 g ai/ha): 0
- Plant response rating ([1]; 62 g ai/ha): 5
- Plant response rating ([1]; 125 g ai/ha): 5
- Plant response rating ([1]; 250 g ai/ha): 5
- Plant response rating ([2]; 62 g ai/ha): 75
- Plant response rating ([2]; 250 g ai/ha): 80
- Plant response rating ([3]; 31 g ai/ha): 0
- Plant response rating ([3]; 62 g ai/ha): 0
- Plant response rating ([3]; 125 g ai/ha): 0
- Plant response rating ([3]; 250 g ai/ha): 0
- Plant response rating ([4]; 31 g ai/ha): 0
- Plant response rating ([4]; 62 g ai/ha): 0
- Plant response rating ([4]; 125 g ai/ha): 0
- Plant response rating ([4]; 250 g ai/ha): 0
- Plant response rating ([5]; 31 g ai/ha): 5
- Plant response rating ([5]; 62 g ai/ha): 20
- Plant response rating ([5]; 125 g ai/ha): 20
- Plant response rating ([5]; 250 g ai/ha): 55
- Plant response rating (corn (Zea mays) [6]; 31 g ai/ha): 0
- Plant response rating (corn (Zea mays) [6]; 62 g ai/ha): 0
- Plant response rating (corn (Zea mays) [6]; 125 g ai/ha): 0
- Plant response rating (corn (Zea mays) [6]; 250 g ai/ha): 0

SMILES: O=C1NCCC(c2cccc(C(F)(F)F)c2)C1C(=O)Nc1ccc(F)c(F)c1F (racemic) [Compound 28]
- Plant response rating ([7]; 125 g ai/ha): 0
- Plant response rating (corn (Zea mays) [8]; 31 g ai/ha): 0
- Plant response rating (corn (Zea mays) [8]; 62 g ai/ha): 0
- Plant response rating (corn (Zea mays) [8]; 125 g ai/ha): 30
- Plant response rating (corn (Zea mays) [8]; 250 g ai/ha): 55
- Plant response rating ([9]; 31 g ai/ha): 5
- Plant response rating ([9]; 62 g ai/ha): 5
- Plant response rating ([9]; 125 g ai/ha): 5
- Plant response rating ([9]; 250 g ai/ha): 30
- Plant response rating ([10]; 31 g ai/ha): 60
- Plant response rating ([10]; 62 g ai/ha): 85
- Plant response rating ([10]; 125 g ai/ha): 95
- Plant response rating ([10]; 250 g ai/ha): 95
- Plant response rating ([11]; 31 g ai/ha): 0
- Plant response rating ([11]; 62 g ai/ha): 0
- Plant response rating ([11]; 125 g ai/ha): 0
- Plant response rating ([11]; 250 g ai/ha): 10
- Plant response rating ([12]; 31 g ai/ha): 60
- Plant response rating ([12]; 62 g ai/ha): 75
- Plant response rating ([12]; 125 g ai/ha): 90
- Plant response rating ([12]; 250 g ai/ha): 95
- Plant response rating ([13]; 31 g ai/ha): 10
- Plant response rating ([13]; 62 g ai/ha): 0
- Plant response rating ([13]; 125 g ai/ha): 20
- Plant response rating ([13]; 250 g ai/ha): 20
- Plant response rating ([14]; 31 g ai/ha): 0
- Plant response rating ([14]; 62 g ai/ha): 0
- Plant response rating ([14]; 125 g ai/ha): 10
- Plant response rating ([14]; 250 g ai/ha): 50
- Plant response rating ([15]; 31 g ai/ha): 0
- Plant response rating ([15]; 62 g ai/ha): 0
- Plant response rating ([15]; 125 g ai/ha): 0
- Plant response rating ([15]; 250 g ai/ha): 10
- Plant response rating (soybean (Glycine max); 31 g ai/ha): 0
- Plant response rating (soybean (Glycine max); 62 g ai/ha): 0
- Plant response rating (soybean (Glycine max); 125 g ai/ha): 0
- Plant response rating (soybean (Glycine max); 250 g ai/ha): 0

SMILES: O=C1NCCC(c2cccc(C(F)(F)F)c2)C1C(=O)Nc1cccc(F)c1F (centres unmarked) [Compound 9, N-(2,3-difluorophenyl)-2-oxo-4-[3-(trifluoromethyl)phenyl]-3-piperidinecarboxamide]
- Plant response rating ([1]; 31 g ai/ha): 0
- Plant response rating ([1]; 62 g ai/ha): 5
- Plant response rating ([1]; 125 g ai/ha): 35
- Plant response rating ([1]; 250 g ai/ha): 85
- Plant response rating ([7]; 31 g ai/ha): 5
- Plant response rating ([7]; 62 g ai/ha): 0
- Plant response rating ([7]; 125 g ai/ha): 0
- Plant response rating ([7]; 250 g ai/ha): 10
- Plant response rating ([2]; 31 g ai/ha): 0
- Plant response rating ([2]; 62 g ai/ha): 0
- Plant response rating ([2]; 125 g ai/ha): 5
- Plant response rating ([2]; 250 g ai/ha): 0
- Plant response rating (corn (Zea mays) [8]; 31 g ai/ha): 0
- Plant response rating (corn (Zea mays) [8]; 62 g ai/ha): 0
- Plant response rating (corn (Zea mays) [8]; 125 g ai/ha): 75
- Plant response rating (corn (Zea mays) [8]; 250 g ai/ha): 90
- Plant response rating ([9]; 31 g ai/ha): 0
- Plant response rating ([9]; 62 g ai/ha): 20
- Plant response rating ([9]; 125 g ai/ha): 5
- Plant response rating ([9]; 250 g ai/ha): 45
- Plant response rating ([3]; 31 g ai/ha): 0
- Plant response rating ([3]; 62 g ai/ha): 0
- Plant response rating ([3]; 125 g ai/ha): 0
- Plant response rating ([3]; 250 g ai/ha): 0
- Velvetleaf plant response rating ([16]; 125 g ai/ha): 0
- Velvetleaf plant response rating ([16]; 500 g ai/ha): 0
- Plant response rating ([4]; 31 g ai/ha): 0
- Plant response rating ([4]; 62 g ai/ha): 0
- Plant response rating ([4]; 125 g ai/ha): 0
- Plant response rating ([4]; 250 g ai/ha): 0
- Plant response rating ([10]; 31 g ai/ha): 90
- Plant response rating ([10]; 62 g ai/ha): 95
- Plant response rating ([10]; 125 g ai/ha): 95
- Plant response rating ([10]; 250 g ai/ha): 98
- Plant response rating ([5]; 31 g ai/ha): 0
- Plant response rating ([5]; 62 g ai/ha): 35
- Plant response rating ([5]; 125 g ai/ha): 75
- Plant response rating ([5]; 250 g ai/ha): 75
- Corn plant response rating (corn (Zea mays) [17]): 20
- Plant response rating, Corn (corn (Zea mays) [17]): 70
- Plant response rating ([11]; 31 g ai/ha): 0
- Plant response rating ([11]; 62 g ai/ha): 0
- Plant response rating ([11]; 125 g ai/ha): 35
- Plant response rating ([11]; 250 g ai/ha): 55
- Plant response rating ([12]; 31 g ai/ha): 75
- Plant response rating ([12]; 62 g ai/ha): 90
- Plant response rating ([12]; 125 g ai/ha): 95
- Plant response rating ([12]; 250 g ai/ha): 95
- Plant response rating ([13]; 31 g ai/ha): 0
- Plant response rating ([13]; 62 g ai/ha): 5
- Plant response rating ([13]; 125 g ai/ha): 0
- Plant response rating ([13]; 250 g ai/ha): 0
- Plant response rating (corn (Zea mays) [6]; 31 g ai/ha): 0
- Plant response rating (corn (Zea mays) [6]; 62 g ai/ha): 0
- Plant response rating (corn (Zea mays) [6]; 125 g ai/ha): 0
- Plant response rating (corn (Zea mays) [6]; 250 g ai/ha): 0
- Plant response rating ([14]; 31 g ai/ha): 0
- Plant response rating ([14]; 62 g ai/ha): 0
- Plant response rating ([14]; 125 g ai/ha): 0
- Plant response rating ([14]; 250 g ai/ha): 0
- Plant response rating ([15]; 31 g ai/ha): 0
- Plant response rating ([15]; 62 g ai/ha): 30
- Plant response rating ([15]; 125 g ai/ha): 55
- Plant response rating ([15]; 250 g ai/ha): 70
- Plant response rating (soybean (Glycine max); 31 g ai/ha): 0
- Plant response rating (soybean (Glycine max); 62 g ai/ha): 0
- Plant response rating (soybean (Glycine max); 125 g ai/ha): 0
- Plant response rating (soybean (Glycine max); 250 g ai/ha): 0

SMILES: O=C1NCCC(c2cccc(C(F)(F)F)c2)C1C(=O)Nc1ccccc1C(F)(F)F (centres unmarked) [Compound 10, 2-oxo-N-[2-(trifluoromethyl)phenyl)-4-[3-(trifluoromethyl)phenyl]-3-piperidinecarboxamide]
- Velvetleaf plant response rating ([16]; 125 g ai/ha): 0
- Velvetleaf plant response rating ([16]; 500 g ai/ha): 0
- Corn plant response rating (corn (Zea mays) [17]): 0
- Plant response rating, Corn (corn (Zea mays) [17]): 0
